Here are results for four molecules from ChEMBL document CHEMBL1275369, “Structural insights into the hot spot amino acid residues of mushroom tyrosinase for the bindings of thujaplicins” (Bioorg Med Chem, 2010).

A word on the Ki: it is a dissociation constant, usually derived from enzyme kinetics or from competition with a known ligand. A high value points to lower affinity. As usually defined, the IC50 is the concentration needed to halve the response being measured. The term Km denotes the substrate concentration at which the rate is half of its maximum.

The target of data set [1] is T1, Tyrosinase (Agaricus bisporus, UniProt O42713).
T1 sequence (O42713 whole entry): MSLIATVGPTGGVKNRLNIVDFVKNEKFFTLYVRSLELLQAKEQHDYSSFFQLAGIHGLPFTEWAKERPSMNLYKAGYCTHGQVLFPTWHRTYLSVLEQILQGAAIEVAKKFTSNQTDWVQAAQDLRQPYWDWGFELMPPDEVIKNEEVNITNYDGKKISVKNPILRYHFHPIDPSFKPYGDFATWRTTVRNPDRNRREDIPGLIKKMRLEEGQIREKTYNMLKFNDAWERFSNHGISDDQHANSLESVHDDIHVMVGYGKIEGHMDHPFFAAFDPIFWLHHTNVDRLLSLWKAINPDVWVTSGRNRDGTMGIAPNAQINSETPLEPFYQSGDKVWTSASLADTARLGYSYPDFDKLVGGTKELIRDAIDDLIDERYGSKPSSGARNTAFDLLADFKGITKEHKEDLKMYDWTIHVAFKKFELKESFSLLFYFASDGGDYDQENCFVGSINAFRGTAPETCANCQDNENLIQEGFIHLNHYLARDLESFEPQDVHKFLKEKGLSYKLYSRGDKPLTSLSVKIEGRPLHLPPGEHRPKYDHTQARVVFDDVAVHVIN
As to the kind of experiment: Competitive inhibition of mushroom tyrosinase after 15 mins by Lineweaver-Burke plot analysis.

The target of data set [2] is T1, Tyrosinase. As to the kind of experiment: Inhibition of mushroom tyrosinase after 15 mins.
Substrate in data set [3]: CC(C)c1cccc(=O)c(O)c1
To be noted: Agaricus bisporus; 0.20 uM.
Description: Inhibition of mushroom tyrosinase at 0.20 uM after 15 mins by Michaelis-Menten constant analysis

Substrate in data set [4]: CC(C)c1ccc(O)c(=O)cc1
To be noted: Agaricus bisporus; 0.02 uM.
Description: Inhibition of mushroom tyrosinase at 0.02 uM after 15 mins by Michaelis-Menten constant analysis

Substrate in data set [5]: CC(C)c1ccccc(=O)c1O
To be noted: Agaricus bisporus; 3 uM.
Description: Inhibition of mushroom tyrosinase at 3 uM after 15 mins by Michaelis-Menten constant analysis

Substrate in data set [6]: CC(C)c1ccccc(=O)c1O
The conditions noted are these: Agaricus bisporus; 6 uM.
Description: Inhibition of mushroom tyrosinase at 6 uM after 15 mins by Michaelis-Menten constant analysis

Substrate in data set [7]: CC(C)c1ccc(O)c(=O)cc1
The conditions noted are these: Agaricus bisporus; 0.06 uM.
Description: Inhibition of mushroom tyrosinase at 0.06 uM after 15 mins by Michaelis-Menten constant analysis

Substrate in data set [8]: CC(C)c1cccc(=O)c(O)c1
Description: Inhibition of mushroom tyrosinase at 0.05 uM after 15 mins by Michaelis-Menten constant analysis
The conditions noted are these: Agaricus bisporus; 0.05 uM.

`CC(C)c1ccc(O)c(=O)cc1` [GAMMA-THUJAPLICIN] showed an inhibition constant Ki at Tyrosinase [1] of 20 nM. On Tyrosinase [2], this molecule gave an IC50 of 70 nM.

In turn, `CC(C)c1cccc(=O)c(O)c1` [HINOKITIOL] had a Ki on Tyrosinase [1] of 60 nM. Besides, on Tyrosinase [2], it took 90 nM to reach half-maximal inhibition (IC50).

As to `CC(C)c1ccccc(=O)c1O` [ALPHA-THUJAPLICIN], the affinity on Tyrosinase [1], expressed as Ki, was 3300 nM. At Tyrosinase [2], this molecule returned an IC50 of 9530 nM.

B1: Tyrosinase (Agaricus bisporus), O42713 (protein)
chain: MSLIATVGPTGGVKNRLNIVDFVKNEKFFTLYVRSLELLQAKEQHDYSSFFQLAGIHGLPFTEWAKERPSMNLYKAGYCTHGQVLFPTWHRTYLSVLEQILQGAAIEVAKKFTSNQTDWVQAAQDLRQPYWDWGFELMPPDEVIKNEEVNITNYDGKKISVKNPILRYHFHPIDPSFKPYGDFATWRTTVRNPDRNRREDIPGLIKKMRLEEGQIREKTYNMLKFNDAWERFSNHGISDDQHANSLESVHDDIHVMVGYGKIEGHMDHPFFAAFDPIFWLHHTNVDRLLSLWKAINPDVWVTSGRNRDGTMGIAPNAQINSETPLEPFYQSGDKVWTSASLADTARLGYSYPDFDKLVGGTKELIRDAIDDLIDERYGSKPSSGARNTAFDLLADFKGITKEHKEDLKMYDWTIHVAFKKFELKESFSLLFYFASDGGDYDQENCFVGSINAFRGTAPETCANCQDNENLIQEGFIHLNHYLARDLESFEPQDVHKFLKEKGLSYKLYSRGDKPLTSLSVKIEGRPLHLPPGEHRPKYDHTQARVVFDDVAVHVIN
Regarding B1, the Km amounted to 1160 µM in data set [3]; 530 µM in data set [4]; 380 µM in data set [5]; 380 µM in data set [6]; 950 µM in data set [7]; 530 µM in data set [8].
